Test results from patent US12168671B2, “Phosphohistidine mimetics and antibodies to same” (The Trustees of Princeton University, priority 2013, dated 2024).

Assay: second pKa from 31P shift
Assay type: physicochemical
Text: This means that both the pPye and pHis have the same charge state at physiological pH. Since the pKa2 of pHis is […], both of the phosphate group oxygen atoms in pHis will be depronated. For pPye, the doubly deprotonated state will be favored at physiological pH (pH 7.4), well mimicking pHis.

NCCn1cc(P(=O)(O)O)cn1 [pPye] showed a pKa of ~6.7.
